Experimental findings from patent US12201632B2, “Levoketoconazole for treatment of congenital adrenal hyperplasia and primary aldosteronism” (Strongbridge Dublin Limited, priority 2018, dated 2025) are described below.

In assay [1] the test system is HAC15 cells. Briefly: Cortisol production by HAC15 cells (immunoassay). Type of assay: cell-based, Human. To be noted: HAC15, 10 nM ACTH. Here is the method: Human adrenocortical carcinoma HAC15 and mouse corticotroph AtT20 cells were used, purchased as a kind gift by Dr. W. Rainey, and obtained from Dr. J. Tooze (European Organization for Molecular Biology), respectively. Both cell lines were cultured in 75 cm^2 flasks at 37° C. in a humidified incubator (Greiner Bio-One, Alphen a/d Rijn, the Netherlands) at 5% CO2. Dulbecco's Modified Eagle Medium F12 containing 5% fetal calf serum was used for HAC15, whereas AtT20 cells were cultured in Dulbecco's minimal essential medium (DMEM) supplemented with 10% fetal calf serum. Both mediums were supplemented with L-glutamine (2 mmol/L) and penicillin (10^5 U/L). Short tandem repeat (str) profiling using a Powerplex Kit (Promega, Leiden, the Netherlands) of HAC15 and AtT20 gave results consistent with the ATCC database, confirming the identity of both cell lines. Medium and supplements were obtained from Invitrogen, Breda, the Netherlands. Once a week, cells were harvested with trypsin (0.05%)-EDTA (0.53 mM) and resuspended in culture medium. Levoketoconazole (COR-003) and racemic ketoconazole (both from Cortendo AB) were dissolved in absolute ethanol (EtOH), according to manufacturer's instructions, and stored at −20° C. at a stock concentration of […]. At the start of each experiment, both drugs were freshly prepared and diluted in EtOH in the correct concentrations. Synacten (synthetic ACTH, Novartis Pharma A.G.) stock concentration was stored at 4° C. and dissolved in culture medium at the day of use. The final concentrations of ACTH were chosen based on a dose-response curve in HAC15 cells and previously reported studies in the literature. For HAC15, 200,000 and 100,000 cells were plated in 0.5 ml medium in 24 well plates for experiments of 1 and 3 days, respectively. […]
Cortisol concentrations were measured in the supernatant using a chemiluminescence immunoassay system (Immulite 2000XPi; Siemens DPC Inc., Los Angeles, Calif., USA). In addition, we carried out multi-steroid analysis by liquid chromatography/mass spectrometry (LC/MS-MS) to accurately quantify androstenedione, corticosterone, cortisol, 11-deoxycortisol, DHEA, DHEAS, progesterone, 17-hydroxyprogesterone, and testosterone. […] Steroids were quantified with respect to a calibration series, with internal standards. Steroids were quantified on a Xevo TQS LC-MS/MS (Waters Chromatography).
Statistical analysis was performed using Graphpad Prism 6.0 (Graphpad Software, San Diego, CA). […] Effects of both compounds on the steroid profile were measured as absolute change compared to control and compared using the Student's t-test. When assessing differences between effects of both compounds, the percentage change was evaluated and compared in order to correct for differences in the vehicle treated control cells. […]

The subject of assay [2] is EAS associated adrenal hyperplasia cultures. Briefly: Cortisol production in primary EAS associated adrenal hyperplasia cultures. Type of assay: cell-based, human. Conditions: EAS associated hyperplasia no. 1, ACTH (85 μM), mean percentage increase of cortisol production compared to control. Here is the method:
(§1) To obtain primary cultures, adrenal specimens (adrenocortical adenomas, adrenal hyperplasias and adrenocortical carcinomas) were collected after adrenalectomy at the department of Surgery, Erasmus University Medical Center, Rotterdam, the Netherlands, between April 2016 and May 2018. The study was conducted under guidelines that have been approved by the Medical Ethics Committee of the Erasmus Medical Center and informed consent was obtained from all patients. Immediately after surgery, specimens were minced into small pieces of 2-3 mm^3, washed in culture medium and centrifuged for 5 minutes at 600 g. The tissue was stored overnight in culture medium at 4° C., where after the tissue was centrifuged again and the supernatant was removed. Fragments were dissociated using 10-25 ml collagenase type 1 (2 mg/ml: Sigma-Aldrich), followed by incubation at 37° C. for up to two hours. Ficoll (GE healthcare) density gradient separation was used once or twice as required in order to separate contaminating red blood cells from the tumor cells. Cell viability and cell amount were counted by trypan blue exclusion. Dissociated cells were plated at a density of 10^5 cells per well. ACTH-secreting corticotroph pituitary adenoma tissue from patients with Cushing's disease (n=2) was available after transsphenoidal surgery. Single-cell suspensions of the pituitary adenoma tissues were prepared as previously described in detail.
(§2) Owing to a limited number of cells obtained from the specimens, not all experiments were carried out in every primary culture.
(§3) Cortisol concentrations were measured in the supernatant using a chemiluminescence immunoassay system (Immulite 2000XPi; Siemens DPC Inc., Los Angeles, Calif., USA). In addition, we carried out multi-steroid analysis by liquid chromatography/mass spectrometry (LC/MS-MS) to accurately quantify androstenedione, corticosterone, cortisol, 11-deoxycortisol, DHEA, DHEAS, progesterone, 17-hydroxyprogesterone, and testosterone. Concentrations that were tested on the LC/MS-MS were closest to 50% inhibition or maximal inhibition of cortisol as determined by the immunoassay. Steroids were quantified with respect to a calibration series, with internal standards. Steroids were quantified on a Xevo TQS LC-MS/MS (Waters Chromatography).
(§4) Statistical analysis was performed using Graphpad Prism 6.0 (Graphpad Software, San Diego, CA). Non-linear regression curve fitting program was used to calculate the half maximal inhibitory concentrations (IC50) on cortisol production. Effects of both compounds on the steroid profile were measured as absolute change compared to control and compared using the Student's t-test. When assessing differences between effects of both compounds, the percentage change was evaluated and compared in order to correct for differences in the vehicle treated control cells. Values of P<0.05 were considered statistically significant and data are presented as mean SEM.

Assay [3] concerns primary human adrenocortical carcinoma cultures. The assay is described as follows: Cortisol production in primary adrenocortical carcinoma cultures. Type of assay: cell-based. Conditions: ACC no. 3, ACTH (85 μM), mean percentage increase of cortisol production compared to control. Here is the method: as §1, §2, §3, §4
The test system of assay [4] is HAC15 cells. The assay is described as follows: Steroid profile by LC/MS-MS in HAC15 cells. Type of assay: cell-based, Human. To be noted: HAC15. Here is the method: Human adrenocortical carcinoma HAC15 and mouse corticotroph AtT20 cells were used, purchased as a kind gift by Dr. W. Rainey, and obtained from Dr. J. Tooze (European Organization for Molecular Biology), respectively. Both cell lines were cultured in 75 cm^2 flasks at 37° C. in a humidified incubator (Greiner Bio-One, Alphen a/d Rijn, the Netherlands) at 5% CO2. Dulbecco's Modified Eagle Medium F12 containing 5% fetal calf serum was used for HAC15, whereas AtT20 cells were cultured in Dulbecco's minimal essential medium (DMEM) supplemented with 10% fetal calf serum. Both mediums were supplemented with L-glutamine (2 mmol/L) and penicillin (10^5 U/L). Short tandem repeat (str) profiling using a Powerplex Kit (Promega, Leiden, the Netherlands) of HAC15 and AtT20 gave results consistent with the ATCC database, confirming the identity of both cell lines. Medium and supplements were obtained from Invitrogen, Breda, the Netherlands. Once a week, cells were harvested with trypsin (0.05%)-EDTA (0.53 mM) and resuspended in culture medium. Levoketoconazole (COR-003) and racemic ketoconazole (both from Cortendo AB) were dissolved in absolute ethanol (EtOH), according to manufacturer's instructions, and stored at −20° C. at a stock concentration of […]. At the start of each experiment, both drugs were freshly prepared and diluted in EtOH in the correct concentrations. Synacten (synthetic ACTH, Novartis Pharma A.G.) stock concentration was stored at 4° C. and dissolved in culture medium at the day of use. The final concentrations of ACTH were chosen based on a dose-response curve in HAC15 cells and previously reported studies in the literature. For HAC15, 200,000 and 100,000 cells were plated in 0.5 ml medium in 24 well plates for experiments of 1 and 3 days, respectively. For AtT20, cell amounts were 100,000 and 30,000. One day after seeding the HAC15 cells, the medium was refreshed and cells were treated 1 or 3 days in quadruplicate with levoketoconazole or racemic ketoconazole (0.05-5 μM), with or without 10 nM ACTH. To study effects of both compounds on pituitary AtT20 cells, concentrations of 0.1 to 10 μM of both drugs were used. Controls were vehicle treated. […] Media were collected after 1 or 3 days of incubation and stored at −20° C. until analysis. All cell culture experiments were carried out at least twice.
as §3, §4

For assay [5], the system named is EAS associated adrenal hyperplasia no. 1 primary culture. The assay is described as follows: Steroid profile by LC/MS-MS in EAS associated adrenal hyperplasia no. 1. Type of assay: cell-based, human. Conditions: EAS associated adrenal hyperplasia no. 1. Here is the method:
as §1
Primary culture conditions for primary cultures were similar as described in the section ‘cell culture and compounds’, but with small adjustments: ACTH was used at a concentration of 85 pM (250 pg/mL), treatment was started 3-4 days after plating of the cells and cells were incubated for 3 days, and; for pituitary primary cultures, levoketoconazole and racemic ketoconazole were only tested at a concentration of 1 μM. Owing to a limited number of cells obtained from the specimens, not all experiments were carried out in every primary culture.
as §3, §4

Marks after values point to notes of the source that are not given here.

As for “ACTH: Synacten (synthetic ACTH, Novartis Pharma A.G.), used to stimulate cortisol production”, in assay [1] (1 day of incubation), the “mean increase in cortisol by ACTH stimulation” value was 34%. Further, the “mean increase in cortisol by ACTH stimulation” value in assay [1] (3 days of incubation) is 61%. In assay [2], the “ACTH stimulated cortisol (%)” value is listed as “+228%”. Besides, in assay [3], the “ACTH stimulated cortisol (%)” value was “+67% *”. Besides, in assay [4], the “increase of corticosterone under ACTH” value worked out at 359% and the “increase of progesterone under ACTH” value amounted to 7%. In assay [5], the “change of progesterone by ACTH stimulation” value was −11%; the “change of testosterone by ACTH stimulation” value is “did not change”; the “mean increase of corticosterone, 17-OHP, 11-DOC, cortisol and androstenedione by ACTH stimulation” value is reported as “+111%”.
